Consider six molecules from US10882871B2, “18/19F-labelled compounds which target the prostate specific membrane antigen” (BRITISH COLUMBIA CANCER AGENCY BRANCH, priority 2016, dated 2021).

The subject of data set [1] is PSMA-expressing prostate cancer. Particulars: clinical trials, PSMA-expressing prostate cancer patients; cited from earlier work.
Data set [2] concerns PSMA-expressing LNCAP cancer xenografts. Put plainly: Biodistribution and tumor-to-background contrast ratios of 18F-labeled tracers. In kind it is in vivo, mouse (NODSCID 1L2RγKO male mice). On the procedure: LNCap cell line was obtained from ATCC (LNCaP clone FGC, CRL-1740). It was established from a metastatic site of left supraclavicular lymph node of human prostatic adenocarcinoma. Cells were cultured in PRMI 1640 medium supplemented with 10% FBS, penicillin (100 U/mL) and streptomycin (100 μg/mL) at 37° C. in a humidified incubator containing 5% CO2. Cells grown to 80-90% confluence were then washed with sterile phosphate-buffered saline (1×PBS pH 7.4) and trypsinization. The collected cells number was counted with a Hausser Scientific (Horsham, Pa.) Hemacytometer.
Imaging and biodistribution experiments were performed using NODSCID 1L2RγKO male mice. Mice were anesthetized by inhalation with 2% isoflurane in oxygen, and implanted subcutaneously with 1×10^7 LNCaP cells behind left shoulder. Mice were imaged or used in biodistribution studies when the tumor grew up to reach 5-8 mm in diameter during 5-6 weeks.
PET imaging experiments were conducted using Siemens Inveon micro PET/CT scanner. Each tumor bearing mouse was injected 6-8 MBq of F-18 labeled tracer through the tail vein under anesthesia (2% isoflurane in oxygen). The mice were allowed to recover and roam freely in their cage. After 50 min, the mice were sedated again with 2% isoflurane in oxygen inhalation and positioned in the scanner. A 10-min CT scan was conducted first for localization and attenuation correction after segmentation for reconstructing the PET images. Then, a 10-min static PET imaging was performed to determined uptake in tumor and other organs. The mice were kept warm by a heating pad during acquisition. For imaging studies acquired at 2 h post-injection (p.i.), the mice were placed in the micro PET/CT scanner at 110 min p.i. Then, the CT and PET acquisitions were conducted as described above.
For biodistribution studies, the mice were injected with the radiotracer as described above. At predetermined time points (1 or 2 h), the mice was anesthetized with 2% isoflurane inhalation, and euthanized by CO2 inhalation. Blood was withdrawn immediately from the heart, and the organs/tissues of interest were collected. The collected organs/tissues were weighed and counted using an automatic gamma counter. The uptake in each organ/tissue was normalized to the injected dose using a standard curve, and expressed as the percentage of the injected dose per gram of tissue (% ID/g).

Structures are written as SMILES. Some results are limits rather than exact numbers.

For `O=C([O-])CN1CCN(CC(=O)[O-])CCN(CC(=O)NCC2CCC(C(=O)N[C@@H](Cc3ccc4ccccc4c3)C(=O)NCCCC[C@H](NC(=O)N[C@@H](CCC(=O)O)C(=O)O)C(=O)O)CC2)CCN(CC(=O)[O-])CC1.[177Lu+3]` (stereo partly shown) [PSMA-617 radiolabeled with Lu-177], the positive response in data set [1] was > 50%.
As for `C[N+](C)(Cc1cn(Cc2ccc(C(=O)NCCCC[C@H](NC(=O)N[C@@H](CCC(=O)O)C(=O)O)C(=O)O)cn2)nn1)C[B-](F)(F)[18F]` [^18F-HTK01130], in data set [2] (1 h), the “Biodistribution Adrenal glands” value is recorded as 1.46 ± 0.56 % ID/g, the “Biodistribution Blood” value is recorded as 0.58 ± 0.09 % ID/g, the “Biodistribution Bone” value worked out at 0.22 ± 0.05 % ID/g and the “Biodistribution Brain” value is 0.04 ± 0.01 % ID/g. In addition, in data set [2] (1 h), the “Biodistribution Fat” value came out at 0.39 ± 0.14 % ID/g, the “Biodistribution Heart” value came out at 0.21 ± 0.05 % ID/g, the “Biodistribution Intestine” value is recorded as 0.31 ± 0.01 % ID/g and the “Biodistribution Kidneys” value was found to be 63.3 ± 13.5 % ID/g. In data set [2] (1 h), the “Biodistribution Liver” value is listed as 1.26 ± 0.27 % ID/g, the “Biodistribution Lungs” value was 0.75 ± 0.10 % ID/g, the “Biodistribution Muscle” value came out at 0.20 ± 0.07 % ID/g and the “Biodistribution Pancreas” value stood at 0.31 ± 0.11 % ID/g. In data set [2] (1 h), the “Biodistribution Spleen” value was found to be 0.95 ± 0.56 % ID/g, the “Biodistribution Stomach” value worked out at 0.09 ± 0.03 % ID/g, the “Biodistribution Testes” value amounted to 0.30 ± 0.05 % ID/g and the “Biodistribution Tumor” value was found to be 4.44 ± 1.11 % ID/g. Moreover, in data set [2] (1 h), the “Tumor:Blood contrast ratio” value is on record as 7.60 ± 1.33, the “Tumor:Muscle contrast ratio” value was 24.1 ± 8.79 and the “Tumor:kidney contrast ratio” value stood at 0.07 ± 0.02. Also, in data set [2] (2 h), the “Biodistribution Adrenal glands” value was 1.08 ± 0.51 % ID/g, the “Biodistribution Blood” value amounted to 0.21 ± 0.10 % ID/g, the “Biodistribution Bone” value stood at 0.20 ± 0.09 % ID/g and the “Biodistribution Brain” value is 0.03 ± 0.01 % ID/g. In data set [2] (2 h), the “Biodistribution Fat” value was 0.32 ± 0.30 % ID/g, the “Biodistribution Heart” value is listed as 0.10 ± 0.04 % ID/g, the “Biodistribution Intestine” value was found to be 0.24 ± 0.11 % ID/g and the “Biodistribution Kidneys” value stood at 48.2 ± 24.6 % ID/g. Moreover, in data set [2] (2 h), the “Biodistribution Liver” value is listed as 1.20 ± 0.30 % ID/g, the “Biodistribution Lungs” value was 0.30 ± 0.10 % ID/g, the “Biodistribution Muscle” value worked out at 0.08 ± 0.03 % ID/g and the “Biodistribution Pancreas” value turned out to be 0.20 ± 0.18 % ID/g. In data set [2] (2 h), the “Biodistribution Spleen” value is listed as 0.39 ± 0.35 % ID/g, the “Biodistribution Stomach” value was 0.05 ± 0.03 % ID/g, the “Biodistribution Testes” value is 0.16 ± 0.10 % ID/g and the “Biodistribution Tumor” value was 4.27 ± 0.65 % ID/g. In data set [2] (2 h), the “Tumor:Blood contrast ratio” value was determined as 7.60 ± 1.33, the “Tumor:Muscle contrast ratio” value was determined as 24.1 ± 8.79 and the “Tumor:kidney contrast ratio” value turned out to be 0.07 ± 0.02.
As for `C[N+](C)(Cc1cn(CC(=O)NCCOCCOCCC(=O)N[C@@H](Cc2ccc3ccccc3c2)C(=O)NCCCC[C@H](NC(=O)N[C@@H](CCC(=O)O)C(=O)O)C(=O)O)nn1)C[B-](F)(F)[18F]` [^18F-HTK01146], in data set [2] (1 h), the “Biodistribution Adrenal glands” value was 0.81 ± 0.25 % ID/g, the “Biodistribution Blood” value turned out to be 0.13 ± 0.08 % ID/g, the “Biodistribution Bone” value amounted to 0.10 ± 0.07 % ID/g and the “Biodistribution Brain” value was 0.01 ± 0.01 % ID/g. Further, in data set [2] (1 h), the “Biodistribution Fat” value is reported as 0.27 ± 0.14 % ID/g, the “Biodistribution Heart” value is 0.07 ± 0.02 % ID/g, the “Biodistribution Intestine” value turned out to be 22.2 ± 2.79 % ID/g and the “Biodistribution Kidneys” value is listed as 29.9 ± 25.0 % ID/g. In data set [2] (1 h), the “Biodistribution Liver” value was 0.83 ± 0.34 % ID/g, the “Biodistribution Lungs” value turned out to be 0.40 ± 0.13 % ID/g, the “Biodistribution Muscle” value worked out at 0.05 ± 0.01 % ID/g and the “Biodistribution Pancreas” value is on record as 0.13 ± 0.11 % ID/g. Moreover, in data set [2] (1 h), the “Biodistribution Spleen” value is given as 0.75 ± 0.36 % ID/g, the “Biodistribution Stomach” value was 0.21 ± 0.12 % ID/g, the “Biodistribution Testes” value is 0.18 ± 0.05 % ID/g and the “Biodistribution Tumor” value is 5.09 ± 1.10 % ID/g. Besides, in data set [2] (1 h), the “Tumor:Blood contrast ratio” value stood at 54.6 ± 38.5, the “Tumor:Muscle contrast ratio” value is 117 ± 52.1 and the “Tumor:kidney contrast ratio” value was 0.28 ± 0.22.
For `C[N+](C)(Cc1cn(CC(=O)NC[C@H]2CC[C@H](C(=O)N[C@@H](Cc3ccc4ccccc4c3)C(=O)NCCCC[C@H](NC(=O)N[C@@H](CCC(=O)O)C(=O)O)C(=O)O)CC2)nn1)C[B-](F)(F)[18F]` [^18F-HTK01157], in data set [2] (1 h), the “Biodistribution Adrenal glands” value was found to be 2.89 ± 1.94 % ID/g, the “Biodistribution Blood” value is given as 0.89 ± 0.42 % ID/g, the “Biodistribution Bone” value was found to be 0.34 ± 0.14 % ID/g and the “Biodistribution Brain” value turned out to be 0.04 ± 0.01 % ID/g. Moreover, in data set [2] (1 h), the “Biodistribution Fat” value was determined as 0.83 ± 0.33 % ID/g, the “Biodistribution Heart” value is given as 0.31 ± 0.11 % ID/g, the “Biodistribution Intestine” value was determined as 13.0 ± 4.61 % ID/g and the “Biodistribution Kidneys” value was 73.9 ± 35.2 % ID/g. Moreover, in data set [2] (1 h), the “Biodistribution Liver” value is reported as 1.14 ± 0.48 % ID/g, the “Biodistribution Lungs” value turned out to be 1.21 ± 0.48 % ID/g, the “Biodistribution Muscle” value is 0.36 ± 0.18 % ID/g and the “Biodistribution Pancreas” value is listed as 0.30 ± 0.17 % ID/g. In data set [2] (1 h), the “Biodistribution Spleen” value was found to be 2.67 ± 0.98 % ID/g, the “Biodistribution Stomach” value is reported as 0.37 ± 0.45 % ID/g, the “Biodistribution Testes” value was found to be 0.74 ± 0.55 % ID/g and the “Biodistribution Tumor” value is 14.0 ± 5.20 % ID/g. Further, in data set [2] (1 h), the “Tumor:Blood contrast ratio” value amounted to 17.1 ± 5.40, the “Tumor:Muscle contrast ratio” value is 49.7 ± 28.5 and the “Tumor:kidney contrast ratio” value was found to be 0.21 ± 0.08.
Consider `O=C(O)CC[C@H](NC(=O)N[C@@H](CCCCNC(=O)c1ccc(Cn2cc(C[n+]3ccc([B-](F)(F)[18F])cc3)nn2)nc1)C(=O)O)C(=O)O` [^18F-PSMA PyrBF3], for which, in data set [2] (1 h), the “Biodistribution Adrenal glands” value amounted to 6.66 ± 2.33 % ID/g, the “Biodistribution Blood” value was 0.74 ± 0.15 % ID/g, the “Biodistribution Bone” value turned out to be 0.76 ± 0.57 % ID/g and the “Biodistribution Brain” value was 0.05 ± 0.01 % ID/g. Besides, in data set [2] (1 h), the “Biodistribution Fat” value is 1.05 ± 0.49 % ID/g, the “Biodistribution Heart” value was 0.34 ± 0.08 % ID/g, the “Biodistribution Intestine” value is 0.48 ± 0.22 % ID/g and the “Biodistribution Kidneys” value worked out at 164 ± 50.2 % ID/g. Further, in data set [2] (1 h), the “Biodistribution Liver” value was found to be 1.28 ± 0.18 % ID/g, the “Biodistribution Lungs” value is given as 1.67 ± 0.47 % ID/g, the “Biodistribution Muscle” value is 0.28 ± 0.07 % ID/g and the “Biodistribution Pancreas” value stood at 0.68 ± 0.50 % ID/g. Also, in data set [2] (1 h), the “Biodistribution Spleen” value was 3.36 ± 1.08 % ID/g, the “Biodistribution Stomach” value is reported as 0.15 ± 0.03 % ID/g, the “Biodistribution Testes” value worked out at 0.67 ± 0.27 % ID/g and the “Biodistribution Tumor” value stood at 6.26 ± 0.82 % ID/g. Further, in data set [2] (1 h), the “Tumor:Blood contrast ratio” value is given as 8.67 ± 1.74, the “Tumor:Muscle contrast ratio” value was determined as 23.5 ± 5.00 and the “Tumor:kidney contrast ratio” value is recorded as 0.04 ± 0.02.
In the case of `O=C(O)CC[C@H](NC(=O)N[C@@H](CCCCNC(=O)[C@H](Cc1ccc2ccccc2c1)NC(=O)[C@H]1CC[C@H](CNC(=O)Cn2cc(C[n+]3ccc([B-](F)(F)[18F])cc3)nn2)CC1)C(=O)O)C(=O)O` [^18F-PSMA-617-PyrBF3], in data set [2] (1 h), the “Biodistribution Adrenal glands” value was 2.02 ± 0.56 % ID/g, the “Biodistribution Blood” value was found to be 1.45 ± 1.15 % ID/g, the “Biodistribution Bone” value is recorded as 0.54 ± 0.14 % ID/g and the “Biodistribution Brain” value worked out at 0.03 ± 0.00 % ID/g. Besides, in data set [2] (1 h), the “Biodistribution Fat” value was 0.42 ± 0.30 % ID/g, the “Biodistribution Heart” value was determined as 0.25 ± 0.06 % ID/g, the “Biodistribution Intestine” value came to 20.8 ± 4.79 % ID/g and the “Biodistribution Kidneys” value was determined as 83.5 ± 35.7 % ID/g. In data set [2] (1 h), the “Biodistribution Liver” value stood at 1.10 ± 0.28 % ID/g, the “Biodistribution Lungs” value came out at 1.06 ± 0.23 % ID/g, the “Biodistribution Muscle” value is on record as 0.18 ± 0.03 % ID/g and the “Biodistribution Pancreas” value was 0.26 ± 0.08 % ID/g. Besides, in data set [2] (1 h), the “Biodistribution Spleen” value came out at 2.84 ± 1.51 % ID/g, the “Biodistribution Stomach” value was determined as 0.98 ± 0.12 % ID/g, the “Biodistribution Testes” value is listed as 0.39 ± 0.13 % ID/g and the “Biodistribution Tumor” value is recorded as 23.1 ± 8.26 % ID/g. Moreover, in data set [2] (1 h), the “Tumor:Blood contrast ratio” value is reported as 35.4 ± 27.6, the “Tumor:Muscle contrast ratio” value was determined as 145 ± 57.0 and the “Tumor:kidney contrast ratio” value was determined as 0.32 ± 0.11.
